Patent US7902394B2, “Calcilytic compounds” (GlaxoSmithKline LLC, priority 2006, dated 2011)

Target: T1, Human Parathyroid Calcium Receptor (“HuPCaR”) (Homo sapiens, UniProt P41180)
T1 construct: expressed in transfected cells; host or cells: HEK 293 4.0-7 (plasma membrane preparation)
T1 sequence (P41180 20-1078): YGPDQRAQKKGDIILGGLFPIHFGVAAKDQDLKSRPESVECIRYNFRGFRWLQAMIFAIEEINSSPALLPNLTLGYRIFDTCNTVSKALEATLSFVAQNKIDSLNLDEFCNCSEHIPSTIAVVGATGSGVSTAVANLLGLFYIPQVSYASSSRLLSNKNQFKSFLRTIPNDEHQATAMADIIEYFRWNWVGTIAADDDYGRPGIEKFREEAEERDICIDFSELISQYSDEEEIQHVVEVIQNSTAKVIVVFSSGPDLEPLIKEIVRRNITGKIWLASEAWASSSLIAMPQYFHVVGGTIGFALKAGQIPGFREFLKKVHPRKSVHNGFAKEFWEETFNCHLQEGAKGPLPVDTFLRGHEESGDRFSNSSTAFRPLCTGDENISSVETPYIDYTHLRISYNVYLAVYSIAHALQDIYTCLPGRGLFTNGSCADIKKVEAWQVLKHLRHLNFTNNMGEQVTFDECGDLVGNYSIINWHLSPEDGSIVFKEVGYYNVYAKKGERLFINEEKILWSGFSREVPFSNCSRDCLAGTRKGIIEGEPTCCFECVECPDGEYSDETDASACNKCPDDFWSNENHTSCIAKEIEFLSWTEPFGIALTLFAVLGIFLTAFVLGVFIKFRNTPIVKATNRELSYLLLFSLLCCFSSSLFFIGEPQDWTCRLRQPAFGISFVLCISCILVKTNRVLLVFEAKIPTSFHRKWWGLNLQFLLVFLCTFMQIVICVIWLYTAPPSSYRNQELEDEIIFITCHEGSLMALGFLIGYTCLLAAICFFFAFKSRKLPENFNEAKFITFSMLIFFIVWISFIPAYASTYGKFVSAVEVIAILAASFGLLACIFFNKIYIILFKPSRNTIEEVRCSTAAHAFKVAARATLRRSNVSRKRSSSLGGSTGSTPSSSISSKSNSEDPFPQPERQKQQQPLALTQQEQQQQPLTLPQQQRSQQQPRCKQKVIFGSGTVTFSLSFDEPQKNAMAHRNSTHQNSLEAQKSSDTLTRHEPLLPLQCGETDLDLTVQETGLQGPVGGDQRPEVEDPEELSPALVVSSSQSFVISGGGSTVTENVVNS
Experiment: Calcium Receptor Binding Assay (3H ligand displacement, HEK 293 4.0-7 membranes)
Conditions: 2 nM 3H compound, 4° C. 30 min, 10 uM was the limit of the assay
Method: HEK 293 4.0-7 cells stably transfected with the Human Parathyroid Calcium Receptor (“HuPCaR”) were scaled up in T180 tissue culture flasks. Plasma membrane was obtained by polytron homogenization or glass douncing in buffer (50 mM Tris-HCl pH 7.4, 1 mM EDTA, 3 mM MgCl2) in the presence of a protease inhibitor cocktail containing 1 uM Leupeptin, 0.04 uM Pepstatin, and 1 mM PMSF. Aliquoted membrane was snap frozen and stored at −80° C. ^3H labeled compound was radiolabeled to a radiospecific activity of 44 Ci/mmole and was aliquoted and stored in liquid nitrogen for radiochemical stability.
A typical reaction mixture contained 2 nM ^3H compound ((R,R)—N-4′-Methoxy-t-3-3′-methyl-1′-ethylphenyl-1-(1-naphthyl)ethylamine), or ^3H compound (R)—N-[2-Hydroxy-3-(3-chloro-2-cyanophenoxy)propyl]-1,1-dimethyl-2-(4-methoxyphenyl)ethylamine with 4-10 ug membrane in homogenization buffer containing 0.1% gelatin and 10% EtOH in a reaction volume of 0.5 mL. Incubation was performed in 12×75 polyethylene tubes in an ice water bath. To each tube 25 uL of test sample in 100% EtOH was added, followed by 400 uL of cold incubation buffer, and 25 uL of 40 nM ^3H-compound in 100% EtOH for a final concentration of 2 nM. The binding reaction was initiated by the addition of 50 uL of 80-200 ug/mL HEK 293 4.0-7 membrane diluted in incubation buffer, and allowed to incubate at 4° C. for 30 min. Wash buffer was 50 mM Tris-HCl containing 0.1% PEI. Nonspecific binding was determined by the addition of 100-fold excess of unlabeled homologous ligand, and was generally 20% of total binding. The binding reaction was terminated by rapid filtration onto 1% PEI pretreated GF/C filters using a Brandel Harvestor. Filters were placed in scintillation fluid and radioactivity assessed by liquid scintillation counting.

IC50, > 10 µM:
CC(C)(Cc1ccccc1)NC[C@@H](O)c1cc(CCC(=O)O)cc(F)c1F [Example 13, 3-(3-{(1S)-2-[(1,1-dimethyl-2-phenylethyl)amino]-1-hydroxyethyl}-4,5-difluorophenyl)propanoic acid]
COc1ccc(CCC(C)(C)NC[C@@H](O)c2cc(CCC(=O)O)cc(F)c2F)cc1 [Example 17, 3-{3-[(1S)-2-([1,1-dimethyl-3-[4-(methyloxy)phenyl]propyl}amino)-1-hydroxyethyl]-4,5-difluorophenyl]propanoic acid]
CC(C)(Cc1cccs1)NC[C@@H](O)c1cc(CCC(=O)O)cc(F)c1F [Example 21, 3-[3-((1S)-2-{[1,1-dimethyl-2-(2-thienyl)ethyl]amino}-1-hydroxyethyl)-4,5-difluorophenyl]propanoic acid]

Target: T2, human calcium receptor (Homo sapiens, UniProt P41180)
T2 construct: expressed in transfected cells; host or cells: HEK 293 4.0-7
T2 sequence (P41180 20-1078): T1 sequence (P41180 20-1078)
Experiment: Calcium Receptor Inhibitor Assay (block of intracellular Ca2+ increase elicited by extracellular Ca2+, fluo-3)
Type: cell-based
Conditions: HEK 293 4.0-7 cells stably expressing the human calcium receptor; 10 uM was the limit of the assay; read-out: IC50 for blocking increases of intracellular Ca2+ elicited by extracellular Ca2+
Method: Calcilytic activity was measured by determining the IC50 of the test compound for blocking increases of intracellular Ca^2+ elicited by extracellular Ca^2+ in HEK 293 4.0-7 cells stably expressing the human calcium receptor. HEK 293 4.0-7 cells were constructed as described by Rogers et al., J. Bone Miner. Res. 10 Suppl. 1:S483, 1995 (hereby incorporated by reference to the extent required to conduct the present assay). Intracellular Ca^2+ increases were elicited by increasing extracellular Ca^2+ from 1 to 1.75 mM. Intracellular Ca^2+ was measured using fluo-3, a fluorescent calcium indicator.
Cells were maintained in T-150 flasks in selection media (DMEM supplemented with 10% fetal bovine serum and 200 ug/mL hygromycin B), under 5% CO2:95% air at 37° C. and were grown up to 90% confluency. The medium was decanted and the cell monolayer was washed twice with phosphate-buffered saline (PBS) kept at 37° C. After the second wash, 6 mL of 0.02% EDTA in PBS was added and incubated for 4 minutes at 37° C. Following the incubation, cells were dispersed by gentle agitation. Cells from 2 or 3 flasks were pooled and pelleted (100×g). The cellular pellet was resuspended in 10-15 mL of SPF-PCB+ and pelleted again by centrifugation. This washing was done twice.
Sulfate- and phosphate-free parathyroid cell buffer (SPF-PCB) contained 20 mM Na-Hepes, pH 7.4, 126 mM NaCl, 5 mM KCl, and 1 mM MgCl2. SPF-PCB was made up and stored at 4° C. On the day of use, SPF-PCB was supplemented with 1 mg/mL of D-glucose and 1 mM CaCl2 and then split into two fractions. To one fraction, bovine serum albumin (BSA; fraction V, ICN) was added at 5 mg/mL (SPF-PCB+). This buffer was used for washing, loading and maintaining the cells. The BSA-free fraction was used for diluting the cells in the cuvette for measurements of fluorescence.
The pellet was resuspended in 10 mL of SPF-PCB+ containing 2.2 uM fluo-3 (Molecular Probes) and incubated at room temperature for 35 minutes. Following the incubation period, the cells were pelleted by centrifugation. The resulting pellet was washed with SPF-PCB+. After this washing, cells were resuspended in SPF-PCB+ at a density of 1-2×10^6 cells/mL.
For recording fluorescent signals, 300 uL of cell suspension were diluted in 1.2 mL of SPF buffer containing 1 mM CaCl2 and 1 mg/mL of D-glucose. Measurements of fluorescence were performed at 37° C. with constant stirring using a spectrofluorimeter. Excitation and emission wavelengths were measured at 485 and 535 nm, respectively. To calibrate fluorescence signals, digitonin (5 mg/mL in ethanol) was added to obtain Fmax, and the apparent Fmin was determined by adding Tris-EGTA (2.5 M Tris-Base, 0.3 M EGTA). The concentration of intracellular calcium was calculated using the following equation: Intracellular calcium=[…]; where Kd=400 nM.
To determine the potential calcilytic activity of test compounds, cells were incubated with test compound (or vehicle as a control) for 90 seconds before increasing the concentration of extracellular Ca^2+ from 1 to 2 mM. Calcilytic compounds were detected by their ability to block, in a concentration-dependent manner, increases in the concentration of intracellular Ca^2+ elicited by extracellular Ca^2+.

IC50, > 10 µM:
Cc1ccc(CC(C)(C)NC[C@@H](O)c2cc(CCC(=O)O)cc(F)c2F)s1 [Example 16, 3-[3-((1S)-2-{[1,1-dimethyl-2-(5-methyl-2-thienyl)ethyl]amino}-1-hydroxyethyl)-4,5-difluorophenyl]propanoic acid]
COc1ccc(CCC(C)(C)NC[C@@H](O)c2cc(CCC(=O)O)cc(F)c2F)cc1 [Example 17, 3-{3-[(1S)-2-([1,1-dimethyl-3-[4-(methyloxy)phenyl]propyl}amino)-1-hydroxyethyl]-4,5-difluorophenyl]propanoic acid]
Cc1ccc(CC(C)(C)NC[C@@H](O)c2cc(CCC(=O)O)cc(F)c2F)cc1F [Example 18, 3-[3,4-difluoro-5-((1S)-2-{[2-(3-fluoro-4-methylphenyl)-1,1-dimethylethyl]amino}-1-hydroxyethyl)phenyl]propanoic acid]
CSc1ccc(CC(C)(C)NC[C@@H](O)c2cc(CCC(=O)O)cc(F)c2F)cc1 [Example 19, 3-{3-[(1S)-2-({1,1-dimethyl-2-[4-(methylthio)phenyl]ethyl}amino)-1-hydroxyethyl]-4,5-difluorophenyl}propanoic acid]
CC(C)(Cc1ccc(C(C)(C)C)cc1)NC[C@@H](O)c1cc(CCC(=O)O)cc(F)c1F [Example 20, 3-{3-[(1S)-2-({2-[4-(1,1-dimethylethyl)phenyl]-1,1-dimethylethyl}amino)-1-hydroxyethyl]-4,5-difluorophenyl}propanoic acid]
CC(C)(Cc1cccs1)NC[C@@H](O)c1cc(CCC(=O)O)cc(F)c1F [Example 21, 3-[3-((1S)-2-{[1,1-dimethyl-2-(2-thienyl)ethyl]amino}-1-hydroxyethyl)-4,5-difluorophenyl]propanoic acid]
CC(C)(CCc1ccccc1)NC[C@@H](O)c1cc(CCC(=O)O)cc(F)c1F [Example 22, 3-(3-{(1S)-2-[(1,1-dimethyl-3-phenylpropyl)amino]-1-hydroxyethyl}-4,5-difluorophenyl)propanoic acid]
CC(C)(Cc1ccc(Br)cc1)NC[C@@H](O)c1cc(CCC(=O)O)cc(F)c1F [Example 23, 3-[3-((1S)-2-{[2-(4-bromophenyl)-1,1-dimethylethyl]amino}-1-hydroxyethyl)-4,5-difluorophenyl]propanoic acid]
CC(C)(Cc1ccc(Cl)s1)NC[C@@H](O)c1cc(CCC(=O)O)cc(F)c1F [Example 24, 3-[3-((1S)-2-{[2-(5-chloro-2-thienyl)-1,1-dimethylethyl]amino}-1-hydroxyethyl)-4,5-difluorophenyl]propanoic acid]
